{"source": "patent US20020032197A1", "about": "(priority 1998, published 2002)", "origin": "cited, not measured here", "key": {"[1]": {"test_system": "women with PMDD"}, "[2]": {"test_system": "women with PMS", "conditions": "in vivo"}, "[3]": {"test_system": "healthy volunteers exposed to an acute nociceptive stimulus", "conditions": "single oral dosing, 10 healthy volunteers"}, "[4]": {"test_system": "individuals with RSBD", "conditions": "in vivo"}, "[5]": {"biological_target": "T1, MAO-A (Homo sapiens, UniProt P21397)", "T1 sequence (P21397 1-527)": "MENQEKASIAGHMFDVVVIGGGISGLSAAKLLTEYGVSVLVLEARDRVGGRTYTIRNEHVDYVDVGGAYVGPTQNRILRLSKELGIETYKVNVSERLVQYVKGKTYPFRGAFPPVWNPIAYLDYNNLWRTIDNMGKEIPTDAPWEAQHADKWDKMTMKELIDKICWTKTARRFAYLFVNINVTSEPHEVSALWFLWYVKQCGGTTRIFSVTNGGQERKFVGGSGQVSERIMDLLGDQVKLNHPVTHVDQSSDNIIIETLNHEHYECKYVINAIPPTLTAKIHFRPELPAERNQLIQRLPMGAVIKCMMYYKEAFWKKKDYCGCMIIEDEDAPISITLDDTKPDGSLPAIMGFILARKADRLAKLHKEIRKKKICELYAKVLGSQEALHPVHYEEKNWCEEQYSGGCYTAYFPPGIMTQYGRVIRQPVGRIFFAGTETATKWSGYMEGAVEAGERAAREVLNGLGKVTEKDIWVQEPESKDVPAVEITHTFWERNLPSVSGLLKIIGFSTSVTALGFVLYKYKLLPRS"}, "[6]": {"test_system": "young healthy adults", "conditions": "5 mg dose"}, "[7]": {"test_system": "sleep of healthy volunteers"}, "[8]": {"test_system": "opioid receptors", "conditions": "in vitro"}, "[9]": {"biological_target": "T1, MAO-A", "conditions": "ex vivo"}, "[10]": {"test_system": "dopaminergic receptors", "conditions": "in vitro"}, "[11]": {"conditions": "doses as high as 600 mg daily"}, "[12]": {"test_system": "adrenergic receptors", "conditions": "in vitro"}, "[13]": {"biological_target": "T1, MAO-A", "remark": "listed apart in the source"}, "[14]": {"test_system": "monoamine metabolism", "conditions": "humans"}, "[15]": {"test_system": "benzodiazepine receptors", "conditions": "in vitro"}, "[16]": {"test_system": "PTSD patients"}, "[17]": {"conditions": "fluoxetine, bupropion and placebo compared"}}}
{"smiles": "CNCCC(Oc1ccc(C(F)(F)F)cc1)c1ccccc1", "note": "(stereo not shown) [fluoxetine]", "values": [{"measurement": "efficacy and patient satisfaction in women with PMDD", "setting": "[1]; [17]", "result": "greater"}, {"measurement": "tolerability in women with PMDD", "setting": "[1]; [17]", "result": "well tolerated"}, {"measurement": "treatment of a range of symptoms in women with PMS", "setting": "[2]", "result": "effective and well-tolerated"}]}
{"smiles": "COCCCC/C(=N\\OCCN)c1ccc(C(F)(F)F)cc1", "note": "[fluvoxamine]", "values": [{"measurement": "antinociceptive effect", "setting": "[3]", "result": "antinociceptive effect"}]}
{"smiles": "O=C1CN=C(c2ccccc2Cl)c2cc([N+](=O)[O-])ccc2N1", "note": "[clonazepam]", "values": [{"measurement": "cases of RSBD in which effective", "setting": "[4]", "result": "approximately 90%"}]}
{"smiles": "O=C(NCC[N+]1([O-])CCOCC1)c1ccc(Cl)cc1", "note": "[moclobemide-N-oxide, p-chloro-N-(2-morpholinoethyl)-benzamide-N′-oxide]", "values": [{"measurement": "MAO-A inhibitory activity", "setting": "[5]", "result": "MAO-A inhibitory activity"}]}
{"smiles": "COc1ccc2[nH]cc(CCNC(C)=O)c2c1", "note": "[Melatonin]", "values": [{"measurement": "sleep propensity and duration of sleep", "setting": "[6]", "result": "increased sleep propensity and the duration of sleep"}]}
{"smiles": "CC(NC(C)(C)C)C(=O)c1cccc(Cl)c1", "note": "(stereo not shown) [bupropion]", "values": [{"measurement": "efficacy and patient satisfaction in women with PMDD", "setting": "[1]; [17]", "result": "some improvement"}]}
{"smiles": "CNCCCN1c2ccccc2CCc2ccccc21", "note": "[desipramine]", "values": [{"measurement": "antinociceptive effect", "setting": "[3]", "result": "antinociceptive effect"}]}
{"smiles": "O=C(NCCN1CCOCC1)c1ccc(Cl)cc1", "note": "[moclobemide, p-chloro-N-(2-morpholinoethyl)-benzamide]", "values": [{"measurement": "effects on sleep in comparison to other MAO inhibitors", "setting": "[7]", "result": "weak"}, {"measurement": "affinity for opioid receptors", "setting": "[8]", "result": "no appreciable affinity"}, {"measurement": "time to recovery of enzyme activity (reversible binding)", "setting": "[9]", "result": "≤ 16", "unit": "h"}, {"measurement": "antinociceptive effect", "setting": "[3]", "result": "antinociceptive effect"}, {"measurement": "affinity for dopaminergic receptors", "setting": "[10]", "result": "no appreciable affinity"}, {"measurement": "tolerability", "setting": "[11]", "result": "well-tolerated"}, {"measurement": "affinity for adrenergic receptors", "setting": "[12]", "result": "no appreciable affinity"}, {"measurement": "in vitro binding to MAO-A", "setting": "[13]", "result": "weak"}, {"measurement": "plasma levels of homovanillic acid, 3,4-dihydroxyphenylacetic acid, 3-methoxy-4-hydroxyphenylglycol and 5-hydroxyindoleacetic acid", "setting": "[14]", "result": "reductions"}, {"measurement": "affinity for benzodiazepine receptors", "setting": "[15]", "result": "no appreciable affinity"}, {"measurement": "bioavailability", "setting": "after multiple administrations", "result": "approx. 85%"}, {"measurement": "number of different metabolites", "setting": "in vivo", "result": "at least 19"}, {"measurement": "elimination", "setting": "patients with hepatic dysfunction", "result": "impaired"}, {"measurement": "absorption", "setting": "single-dose oral administration", "result": "almost completely absorbed"}]}
{"smiles": "NNCCc1ccccc1", "note": "[phenelzine]", "values": [{"measurement": "reduction of PTSD symptoms versus placebo", "setting": "[16]; Frank et al.", "result": "superior to placebo"}, {"measurement": "PTSD patients helped", "setting": "[16]; open trial (Davidson et al.)", "result": "8 of 11"}, {"measurement": "response of patients with traumatic war neuroses", "setting": "[16]; open trial, 5 patients, after failing antipsychotics, tricyclics and psychotherapy", "result": "responded positively"}, {"measurement": "clinical improvement in PTSD patients", "setting": "[16]; treated openly for 4 to 18 weeks (Lerer et al.)", "result": "only modest clinical improvement"}]}
{"smiles": "CN[C@H]1CC[C@@H](c2ccc(Cl)c(Cl)c2)c2ccccc21", "note": "[sertraline]", "values": [{"measurement": "treatment of PMDD, symptomatic improvement and change in reported functional impairment", "setting": "[1]; versus placebo", "result": "significantly better than placebo"}]}
